# Measured values reported in PMC12535076, “Neurotherapeutic effects of Vutiglabridin as a Paraoxonase-2 modulator in preclinical models of Parkinson’s disease” (Molecular Neurodegeneration, 2025).
# Values joined by “and” are separate entries in the source; they are usually repeats but may differ in a detail not shown here. Equal values may be shown once.
# Key:
# [1] = target: T1, recombinant human PON2 (rePON2) (Homo sapiens, UniProt Q15165); assay: Mass spectrometry-based binding assay; details: 10 nM Vuti incubated with rePON2 0-500 nM for 30 min, LC-MS/MS; read-out: dissociation constant (Kd)
# T1 construct: made in house; host or cells: E. coli BL21 (DE3), pET21b
# Text: The codon-optimization of HsPON2 was for Escherichia coli system and synthesized according to the full-length open reading frame (GenBank accession No. AAC41995.1) from National Center for Biotechnology Information (NCBI; http://www.ncbi.nlm.nih.gov). The HsPON2 gene was amplified by a standard PCR method with a primer set (Forward; 5’-[…]-3’, Reverse; 5’-[…]-3’) and inserted into an expression vector (pET21b; New England Biolabs, USA) using NdeI and XhoI restriction enzyme sites (underlined). […] The recombinant construct was transformed into E. coli BL21 (DE3) competent cells. The transformed cells were activated overnight and transferred to 1 L of LB broth (BD bioscience, USA) with 100 µg/mL ampicillin (Duchefa Biochemie, The Netherlands) containing 0.1% glucose, and then incubated at 37 ℃ and 200 rpm in incubator (Vision Scientific, Korea) until reaching the optical density of 0.6–0.8 at 600 nm (OD600). […] The eluted HsPON2 protein was analyzed by a 12% SDS-PAGE and concentrated up to approximately 1 mL by 10 kDa filter-size amicon (Merck Millipore, USA). […]
# The method followed the concept of previously established protocol. […] The supernatant, which now contains rePON2-bound Vuti, was collected, dried, and re-suspended in acetonitrile, and the drug quantification was performed via LC-MS/MS analysis.
# [2] = system: shPON2-SH-SY5Y cells; assay: Mitochondrial activity in PON2 knockdown (shPON2) and shSCR SH-SY5Y cells treated with MPP+; assay type: cell-based, human
# Method: Human SH-SY5Y neuroblastoma cells (ATCC® (CRL-2266™; Manassas, VA, USA) were first cultured in Dulbecco’s Modified Eagle Medium (DMEM)/F12 supplemented with 10% fetal bovine serum (FBS), 100 U/mL penicillin, and 100 µg/mL streptomycin (complete media, CM) at 37 °C with 5% CO2. Cells (5 × 10^4 cells/well) then were cultured in 96-well plates for 24 h followed by incubation in serum-deficient media (SDM, culture media containing 0.5% FBS) for 16 h. Quiescent cells in SDM were incubated with 1 mM MPP^+ or dimethyl sulfoxide (DMSO) vehicle for 24 h, then treated with Vuti at the designated doses for 24 h. The treated cells were harvested according to the purpose and analyzed.
# Lentiviral PON2 shRNA (h) (sc-62838) was purchased from Santa Cruz Co. (Santa Cruz, CA, USA). shRNA lentiviral particle transduction was performed according to the manufacturer’s protocol. Total RNA was isolated with a Trizol reagent (Invitrogen, Carlsbad, CA, USA). […] PON2 knockdown was verified by quantitative PCR, and the primers and methods used are described in the supplementary material.
# A systemic cell-based mitochondrial function analysis system was established using SH-SY5Y cells in 96-well plates based on fluorescence detection methods as described previously. The assay system covers quantitative assays for methyl thiazyl tetrazolium-mitochondrial dehydrogenase activity (MTT), TMRE-based mitochondrial membrane potential (TMRE), ATP contents, and ROS of cells. […] Fluorescence intensities at 550 nm/580 nm for TMRE, at 510 nm/580 nm MitoSOX, or at 494 nm/522 nm for DCF-DA were normalized by Hoechst intensity at 355 nm/480 nm (Spectramax Gemini EM, Molecular Devices, Sunnyvale, CA, USA).
# Endogenous OCR was measured in adherent SH-SY5Y cells using a Seahorse XF-24 Analyzer (Seahorse Bioscience, Billerica, MA, USA) following the manufacturer’s protocol with minor modifications. […] The OCR was calculated from 3-min measurement cycles and normalized to cell number.
# T1 sequence (Q15165 1-354 isoform Q15165-1): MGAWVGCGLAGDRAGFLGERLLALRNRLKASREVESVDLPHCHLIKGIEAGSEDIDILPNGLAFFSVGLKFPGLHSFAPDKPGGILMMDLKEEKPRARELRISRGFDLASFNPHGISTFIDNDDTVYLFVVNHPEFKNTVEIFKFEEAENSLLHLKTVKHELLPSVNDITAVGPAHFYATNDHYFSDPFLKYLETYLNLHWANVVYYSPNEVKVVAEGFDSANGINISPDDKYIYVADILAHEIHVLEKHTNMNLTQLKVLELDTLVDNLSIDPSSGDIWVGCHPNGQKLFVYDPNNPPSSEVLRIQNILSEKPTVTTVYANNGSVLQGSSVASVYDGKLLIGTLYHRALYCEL
compound,measurement,setting,value
"CCOc1ccc(C2COc3c(ccc4c3CCC(C)(C)O4)C2)c(O)c1 (stereo not shown) [Vuti, Vutiglabridin]",Kd,[1],78.9 nM and 78 nM
same,MPP+-induced mitochondrial damages in shSCR cells,"[2]; control scrambled shRNA cells, 1 mM MPP+ then 1 nM Vuti",significantly restored
same,"OCR (basal respiration, ATP turnover rate, maximum respiratory capacity) in shPON2 cells","[2]; shPON2 cells, 1 mM MPP+ 20 h then 1 nM Vuti 24 h",failed to restore
same,"effects on mitochondria function (MTT, ATP content, TMRE, DCF-DA-ROS, MitoSOX-ROS) in shPON2 cells","[2]; shPON2 infected cells, 1 mM MPP+ 20 h then 1 nM Vuti 24 h",considerably reduced or almost completely abolished
